Patent US10906924B2, “Modulators of indoleamine 2,3-dioxygenase” (GLAXOSMITHKLINE INTELLECTUAL PROPERTY DEVELOPMENT LIMITED, priority 2017, dated 2021)
Counter-ions that a name gives are not always drawn.

target: indoleamine 2,3-dioxygenase (IDO1) (Homo sapiens, UniProt P14902); assay: PBMC IDO1 assay (kynurenine by mass spectrometry); assay type: cell-based; conditions: human PBMC stimulated with IFN-γ and LPS, 2 days incubation, kynurenine detected by mass spectrometry; read-out: IDO1 PBMC pIC50 (converted)
Sequence (P14902 whole entry): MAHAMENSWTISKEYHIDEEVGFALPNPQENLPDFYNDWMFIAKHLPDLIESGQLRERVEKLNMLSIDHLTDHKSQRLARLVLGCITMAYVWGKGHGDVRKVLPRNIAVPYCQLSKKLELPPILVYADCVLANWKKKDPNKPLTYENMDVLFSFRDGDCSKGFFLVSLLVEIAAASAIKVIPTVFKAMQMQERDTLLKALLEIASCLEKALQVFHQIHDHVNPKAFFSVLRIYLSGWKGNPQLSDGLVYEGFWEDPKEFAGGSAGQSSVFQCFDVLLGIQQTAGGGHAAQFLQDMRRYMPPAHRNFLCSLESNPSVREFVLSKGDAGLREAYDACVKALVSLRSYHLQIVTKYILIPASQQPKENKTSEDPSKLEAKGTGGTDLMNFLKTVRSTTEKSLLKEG

Row | IC50 [nM] | Compound
1 | 39.8 | CCOC(=O)N1CCC2(CC1)CC(NC(=O)c1cccc3cn[nH]c13)c1cc(CO)ccc1O2 (stereo not shown) [Example 18, ethyl 6-(hydroxymethyl)-4-(1H-indazole-7-carboxamido)spiro[chroman-2,4′-piperidine]-1′-carboxylate]
2 | 3.98 | COC(=O)N1CCC2(CC1)C[C@H](NC(=O)c1cccc3cc[nH]c13)c1cc(Br)ccc1O2 [Example 4, (S)-methyl 6-bromo-4-(1H-indole-7-carboxamido)spiro[chroman-2,4′-piperidine]-1′-carboxylate]
3 | 3.98 | CCOC(=O)N1CCC2(CC1)C[C@H](NC(=O)c1cccc3cnn(C(C)=O)c13)c1cc(Br)ccc1O2 [Example 52, ethyl (S)-4-(1-acetyl-1H-indazole-7-carboxamido)-6-bromospiro [chromane-2,4′-piperidine]-1′-carboxylate]
4 | 31.6 | CCOC(=O)N1CCC2(CC1)CC(NC(=O)c1cccc3cn[nH]c13)c1cc(Br)ncc1O2 (stereo not shown) [Example 16, ethyl 6′-bromo-4′-(1H-indazole-7-carboxamido)-3′,4′-dihydrospiro[piperidine-4,2′-pyrano[2,3-c]pyridine]-1-carboxylate]
5 | 1.26 | CCOC(=O)N1CCC2(CC1)C[C@H](NC(=O)c1cccc3c(COC(=O)CCC(=O)O)[nH]nc13)c1cc(Br)ccc1O2 [Example 60, (S)-4-((7-((6-bromo-1′-(ethoxycarbonyl)spiro[chromane-2,4′-piperidin]-4-yl)carbamoyl)-1H-indazol-3-yl)methoxy)-4-oxobutanoic acid]
6 | 631 | CCOC(=O)N1CCC2(CC1)CC(NC(=O)c1ccnn1C)c1ccccc1O2 (stereo not shown) [Example 43, ethyl 4-(1-methyl-1H-pyrazole-5-carboxamido)spiro[chroman-2,4′-piperidine]-1′-carboxylate]
7 | 398 | CCOC(=O)N1CCC2(CC1)CC(NC(=O)c1cccc3ccn(C)c13)c1ccccc1O2 (stereo not shown) [Example 38, ethyl 4-(1-methyl-1H-indole-7-carboxamido)spiro[chroman-2,4′-piperidine]-1′-carboxylate]
8 | 126 | CCOC(=O)N1CCC2(CC1)C[C@H](NC(=O)c1cccc3cn(COP(=O)(O)O)nc13)c1ccccc1O2 [Example 55, 2-amino-2-(hydroxymethyl)propane-1,3-diol hemi((S)-(7-((1′-(ethoxycarbonyl)spiro[chroman-2,4′-piperidin]-4-yl)carbamoyl)-2H-indazol-2-yl)methyl phosphate)]
9 | 10 | CCOC(=O)N1CCC2(CC1)C[C@H](NC(=O)c1cccc3cnn(C(=O)OCC)c13)c1cc(Br)ccc1O2 [Example 51, ethyl (S)-6-bromo-4-(1-(ethoxycarbonyl)-1H-indazole-7-carboxamido)spiro[chromane-2,4′-piperidine]-1′-carboxylate]
10 | 20 | COC(=O)N1CCC2(CC1)C[C@H](NC(=O)c1cccc3cn[nH]c13)c1ccccc1O2 [Example 54, methyl (S)-4-(1H-indazole-7-carboxamido)spiro[chromane-2,4′-piperidine]-1′-carboxylate]
11 | 200 | CCOC(=O)N1CCC2(CC1)CC(NC(=O)c1cccc3cn[nH]c13)c1ccncc1O2 (stereo not shown) [Example 33, ethyl 4′-(1H-indazole-7-carboxamido)-3′,4′-dihydrospiro[piperidine-4,2′-pyrano[2,3-c]pyridine]-1-carboxylate]
12 | 200 | CCOC(=O)N1CCC2(CC1)C[C@H](NC(=O)c1ncc[nH]1)c1cc(Br)ccc1O2 [Example 32, (S)-ethyl 6-bromo-4-(1H-imidazole-2-carboxamido)spiro[chroman-2,4′-piperidine]-1′-carboxylate]
13 | 631 | COC(=O)N1CCC2(CC1)C[C@H](NC(=O)c1cccc3cn(COP(=O)(O)O)nc13)c1cc(Br)ccc1O2 [Example 53, 2-amino-2-(hydroxymethyl)propane-1,3-diol hemi((S)-(7-((6-bromo-1′-(methoxycarbonyl)spiro[chroman-2,4′-piperidin]-4-yl)carbamoyl)-2H-indazol-2-yl)methyl phosphate)]
14 | 501 | CCOC(=O)N1CCC2(CC1)CC(NC(=O)c1cccnc1)c1ccccc1O2 (stereo not shown) [Example 41, ethyl 4-(nicotinamido)spiro[chroman-2,4′-piperidine]-1′-carboxylate]
15 | 100 | CCOC(=O)N1CCC2(CC1)C[C@H](NC(=O)c1cccc(O)n1)c1cc(Br)ccc1O2 [Example 25, (S)-ethyl 6-bromo-4-(6-hydroxypicolinamido)spiro[chroman-2,4′-piperidine]-1′-carboxylate]
16 | 200 | O=C(N[C@H]1CC2(CCN(C(=O)Oc3ccccc3)CC2)Oc2ccc(Br)cc21)c1cccc2cn[nH]c12 [Example 31, (S)-phenyl 6-bromo-4-(1H-indazole-7-carboxamido)spiro[chroman-2,4′-piperidine]-1′-carboxylate]
17 | 79.4 | CCOC(=O)N1CCC2(CC1)C[C@H](NC(=O)c1cccc3cn(COP(=O)(O)O)nc13)c1nc(OC)ccc1O2 [Example 56, ethyl (S)-6′-methoxy-4′-(2-((phosphonooxy)methyl)-2H-indazole-7-carboxamido)-3′,4′-dihydrospiro[piperidine-4,2′-pyrano[3,2-b]pyridine]-1-carboxylate, bis 2-amino-2-(hydroxymethyl)-1,3-propanediol salt]
18 | 5.01 | COC(=O)N1CCC2(CC1)C[C@H](NC(=O)c1cccc3cn[nH]c13)c1cc(Br)ccc1O2 [Example 5, (S)-methyl 6-bromo-4-(1H-indazole-7-carboxamido)spiro[chroman-2,4′-piperidine]-1′-carboxylate]
19 | 251 | CCOC(=O)N1CCC2(CC1)CC(NC(=O)c1ccccn1)c1ccccc1O2 (stereo not shown) [Example 34, ethyl 4-(picolinamido)spiro[chroman-2,4′-piperidine]-1′-carboxylate]
20 | 251 | CCOC(=O)N1CCC2(CC1)CC(NC(=O)c1cccnc1)c1nc(OC)ccc1O2 (stereo not shown) [Example 35, ethyl 6′-methoxy-4′-(nicotinamido)-3′,4′-dihydrospiro[piperidine-4,2′-pyrano[3,2-b]pyridine]-1-carboxylate]
21 | 39.8 | CCOC(=O)N1CCC2(CC1)CC(NC(=O)c1cccc3cc[nH]c13)c1c(Br)cccc1O2 (stereo not shown) [Example 17, ethyl 5-bromo-4-(1H-indole-7-carboxamido)spiro[chroman-2,4′-piperidine]-1′-carboxylate]
22 | 794 | CCOC(=O)N1CCC2(CC1)CC(NC(=O)c1ncccn1)c1ccccc1O2 (stereo not shown) [Example 45, ethyl 4-(pyrimidine-2-carboxamido)spiro[chroman-2,4′-piperidine]-1′-carboxylate]
23 | 0.794 | CCOC(=O)N1CCC2(CC1)C[C@H](NC(=O)c1cccc3c(CO)n[nH]c13)c1cc(Br)ccc1O2 [Example 59, ethyl (S)-6-bromo-4-(3-(hydroxymethyl)-1H-indazole-7-carboxamido) spiro[chromane-2,4′-piperidine]-1′-carboxylate]
24 | 158 | CCOC(=O)N1CCC2(CC1)CC(NC(=O)c1cccc3cn[nH]c13)c1ncccc1O2 (stereo not shown) [Example 29, ethyl 4′-(1H-indazole-7-carboxamido)-3′,4′-dihydrospiro[piperidine-4,2′-pyrano[3,2-b]pyridine]-1-carboxylate]

Row | Compound | IC50 [nM]
25 | CCOC(=O)N1CCC2(CC1)C[C@H](NC(=O)c1cccc3c(COC(C)=O)[nH]nc13)c1cc(Br)ccc1O2 [Example 61, ethyl (S)-4-(3-(acetoxymethyl)-1H-indazole-7-carboxamido)-6-bromo spiro[chromane-2,4′-piperidine]-1′-carboxylate] | 1.26
